Measured values from patent US10208029B2, “Photoacid compositions having extended lifetime of proton dissociation state” (University of Central Florida Research Foundation, Inc., priority 2013, dated 2019).

Tests used:
[1] = pH of aqueous solution of photoacid 1 in the dark, under 419 nm irradiation and after light off; type: physicochemical
Description: Photoacid 1 shown in FIG. 2B as MEH comprises an example disclosed PAH comprising a protonated photochromic merocyanine (MEH) with a propyl sulfonate group on the nitrogen of the indoline moiety. It was discovered that photoacid 1 can reversibly change the proton concentration of its solution by over 100 times.
In an aqueous solution, the MEH form of 1 is predominantly at room temperature in the dark, which was proven by UV-Vis and NMR spectroscopy.
Proton dissociation of the cis-MEH produces cis-ME, which undergoes a nucleophilic ring closing reaction to yield the product shown as SP in FIG. 2B and a proton. The product formed by the ring closing process has a stabilized proton dissociation state.
When the light was turned off, the pH value increased quickly to ˜4.5 in ˜1 min, gradually returning to its original level in ˜5 min. This cycle can be repeated many times. Therefore, the proton concentration in a solution having photoacid 1 can be simply controlled by switching a visible light source on and off.

[2] = Reversibility of photo-induced proton release; type: physicochemical; conditions: PBS buffer with a pH of 7.4
Description: Referring now to FIGS. 6A-6QQ, the structures of 43 photoacids designed based on FIG. 3A including the photoacids 1 and 40 are shown. All of them have been synthesized. […]. Analogs of photoacid 1 have been extensively studied. Electron-donating groups (-Me and —OMe) on the phenolic moiety increase the stability of the photoacid towards hydrolysis and faster the reverse reaction rate. Photoacids with extended conjugated structures can absorb light and thus function at longer wavelengths than photoacid 1. For example, photoacid 20 has a maximum absorption at 538 nm in 95% ethanol solution, which is about 100 nm longer than that of photoacid 1. Photoacids 10, 17 and 39 have acrylate moieties. They can be used to make photoacid polymers via chain-growth polymerization or thiol-ene reaction. […]. […] In photoacid 34, a benzothiazolium is used as the EA part since it improves the reversibility of the photoreaction.

reversible change of proton concentration of its solution [1] | pH value of aqueous solution ([1]; 5.88×10^−4 M aqueous solution, 25° C., dark) | pH under irradiation ([1]; aqueous solution irradiated with 419 nm light) | pH drop upon irradiation ([1]; aqueous solution, 419 nm light) | pKa ([1]; calculated from pH of 5.88×10^−4 M aqueous solution at 25° C., dark state) | pH value after the light was turned off ([1]; ~1 min after light off) | reversible proton release [2] | SMILES | time to return to original pH level after light off ([1]; aqueous solution, dark) [min]
over 100 times | 5.5 | 3.3 | more than 2 units | 7.8 | ~4.5 |  | CC1(C)C(/C=C/c2ccccc2O)=[N+](CCCS(=O)(=O)[O-])c2ccccc21 [photoacid 1] | ~5
 |  |  |  |  |  | can reversibly release a proton | O=S(=O)([O-])CCC[n+]1c(/C=C/c2cccc3cn[nH]c23)sc2ccccc21 [photoacid 34] | 
